Data published in patent US20250176599A1, “FLAVOR COMPOSITION AND FOOD AND BEVERAGE” (TAKASAGO INTERNATIONAL CORPORATION, priority 2021, published 2025).

Tests used:
[1] = Sensory evaluation of aqueous solution III containing 1-octen-3-one 1 ppb: off-flavor intensity and masking component intensity; conditions: average panel score
Procedure: (§1) In ion-exchanged water, each degradation component was added to achieve the concentrations listed in Table 1, and aqueous solutions I to VI containing these degradation components were prepared.
(§2) For the aforementioned aqueous solutions containing degradation components, nootkatone was added at the concentrations listed in Table 2 to confirm the intensity of the off-flavor (masking effect) in each sample and the intensity of the masking component itself (the impact on the flavor of the food and/or beverage itself).
(§3) The test was conducted as follows. Eight experienced panelists were selected to conduct a sensory evaluation. The intensity of the off-flavor of the aqueous solution containing the degradation components derived from unsaturated fatty acids, without added masking components, was set as “Evaluation: 4.” The ion-exchanged water free of any degradation components was set as “Evaluation: 0.” The intensity of the off-flavor (masking effect) of each sample was then relatively evaluated according to the following evaluation criteria.
(§4) • Off-flavor is strongly sensed: 4 points • Off-flavor is sensed: 3 points • Off-flavor is slightly sensed: 2 points • Off-flavor is barely sensed: 1 point • Off-flavor is not sensed at all: 0 points
(§5) Also, the intensity of the masking components (impact on the flavor of the food and/or beverage itself) was absolutely evaluated according to the following evaluation criteria.
(§6) • Masking component is strongly sensed: 4 points • Masking component is sensed: 3 points • Masking component is slightly sensed: 2 points • Masking component is barely sensed: 1 point • Masking component is not sensed at all: 0 points

[2] = Sensory evaluation of aqueous solution V containing 1-octen-3-ol 10 ppb: off-flavor intensity and masking component intensity; conditions: average panel score
Procedure: as §1, §2, §3, §4, §5, §6

[3] = Sensory evaluation of aqueous solution I containing (E)-2-nonenal 1 ppb: off-flavor intensity and masking component intensity; conditions: average panel score
Procedure: as §1, §2, §3, §4, §5, §6

[4] = Sensory evaluation of aqueous solution VI containing 1,5-octadien-3-ol 10 ppb: off-flavor intensity and masking component intensity; conditions: aqueous solution VI, average panel score
Procedure: as §1, §2, §3, §4, §5, §6

[5] = Sensory evaluation of aqueous solution IV containing 1,5-octadien-3-one 100 ppt: off-flavor intensity and masking component intensity; conditions: aqueous solution IV, average panel score
Procedure: as §1, §2, §3, §4, §5, §6

[6] = Sensory evaluation of aqueous solution II containing (E)-2-octenal 10 ppb: off-flavor intensity and masking component intensity; conditions: average panel score
Procedure: as §1, §2, §3, §4, §5, §6

[7] = Overall conclusion of the sensory evaluation across aqueous solutions I to VI
Procedure: as §1, §2, §3, §4, §5, §6

Structure (SMILES): CC1CCC(C(C)C)C(OCCO)C1 (centres unmarked) [2-menthoxyethanol]
- Masking Component Intensity ([1]; 1 ppb added): 0.8
- Off-Flavor Intensity ([1]; 1 ppb added): 3.1
- Masking Component Intensity ([1]; 1 ppm added): 1.9
- Off-Flavor Intensity ([1]; 1 ppm added): 2.4
- Masking Component Intensity ([1]; 10 ppb added): 1.1
- Off-Flavor Intensity ([1]; 10 ppb added): 2.9
- Masking Component Intensity ([1]; 10 ppm added): 2.5
- Off-Flavor Intensity ([1]; 10 ppm added): 2.3
- Masking Component Intensity ([1]; 50 ppm added): 3.8
- Off-Flavor Intensity ([1]; 50 ppm added): 2.0
- Masking Component Intensity ([1]; 100 ppb added): 1.8
- Off-Flavor Intensity ([1]; 100 ppb added): 2.5
- Masking Component Intensity ([1]; 100 ppm added): 3.9
- Off-Flavor Intensity ([1]; 100 ppm added): 2.0
- Masking Component Intensity ([1]; 100 ppt added): 0.6
- Off-Flavor Intensity ([1]; 100 ppt added): 3.3
- Masking Component Intensity ([2]; 1 ppb added): 0.4
- Off-Flavor Intensity ([2]; 1 ppb added): 3.1
- Masking Component Intensity ([2]; 1 ppm added): 1.8
- Off-Flavor Intensity ([2]; 1 ppm added): 2.3
- Masking Component Intensity ([2]; 10 ppb added): 0.5
- Off-Flavor Intensity ([2]; 10 ppb added): 2.6
- Masking Component Intensity ([2]; 10 ppm added): 2.6
- Off-Flavor Intensity ([2]; 10 ppm added): 2.3
- Masking Component Intensity ([2]; 50 ppm added): 3.5
- Off-Flavor Intensity ([2]; 50 ppm added): 1.8
- Masking Component Intensity ([2]; 100 ppb added): 1.4
- Off-Flavor Intensity ([2]; 100 ppb added): 2.5
- Masking Component Intensity ([2]; 100 ppm added): 3.8
- Off-Flavor Intensity ([2]; 100 ppm added): 1.6
- Masking Component Intensity ([2]; 100 ppt added): 0.1
- Off-Flavor Intensity ([2]; 100 ppt added): 3.3
- Masking Component Intensity ([3]; 1 ppb added): 0.5
- Off-Flavor Intensity ([3]; 1 ppb added): 3.4
- Masking Component Intensity ([3]; 1 ppm added): 1.6
- Off-Flavor Intensity ([3]; 1 ppm added): 2.5
- Masking Component Intensity ([3]; 10 ppb added): 0.8
- Off-Flavor Intensity ([3]; 10 ppb added): 3.0
- Masking Component Intensity ([3]; 10 ppm added): 2.3
- Off-Flavor Intensity ([3]; 10 ppm added): 1.8
- Masking Component Intensity ([3]; 50 ppm added): 3.5
- Off-Flavor Intensity ([3]; 50 ppm added): 1.4
- Masking Component Intensity ([3]; 100 ppb added): 1.3
- Off-Flavor Intensity ([3]; 100 ppb added): 2.8
- Masking Component Intensity ([3]; 100 ppm added): 3.8
- Off-Flavor Intensity ([3]; 100 ppm added): 1.0
- Masking Component Intensity ([3]; 100 ppt added): 0.3
- Off-Flavor Intensity ([3]; 100 ppt added): 3.8
- Masking Component Intensity ([4]; 1 ppb added): 0.6
- Off-Flavor Intensity ([4]; 1 ppb added): 3.3
- Masking Component Intensity ([4]; 1 ppm added): 2.0
- Off-Flavor Intensity ([4]; 1 ppm added): 2.0
- Masking Component Intensity ([4]; 10 ppb added): 1.0
- Off-Flavor Intensity ([4]; 10 ppb added): 2.8
- Masking Component Intensity ([4]; 10 ppm added): 2.5
- Off-Flavor Intensity ([4]; 10 ppm added): 1.9
- Masking Component Intensity ([4]; 50 ppm added): 3.8
- Off-Flavor Intensity ([4]; 50 ppm added): 1.5
- Masking Component Intensity ([4]; 100 ppb added): 1.8
- Off-Flavor Intensity ([4]; 100 ppb added): 2.6
- Masking Component Intensity ([4]; 100 ppm added): 4.0
- Off-Flavor Intensity ([4]; 100 ppm added): 1.3
- Masking Component Intensity ([4]; 100 ppt added): 0.3
- Off-Flavor Intensity ([4]; 100 ppt added): 3.4
- Masking Component Intensity ([5]; 1 ppb added): 0.5
- Off-Flavor Intensity ([5]; 1 ppb added): 3.4
- Masking Component Intensity ([5]; 1 ppm added): 2.3
- Off-Flavor Intensity ([5]; 1 ppm added): 2.4
- Masking Component Intensity ([5]; 10 ppb added): 1.0
- Off-Flavor Intensity ([5]; 10 ppb added): 3.0
- Masking Component Intensity ([5]; 10 ppm added): 2.6
- Off-Flavor Intensity ([5]; 10 ppm added): 2.3
- Masking Component Intensity ([5]; 50 ppm added): 3.4
- Off-Flavor Intensity ([5]; 50 ppm added): 1.9
- Masking Component Intensity ([5]; 100 ppb added): 1.6
- Off-Flavor Intensity ([5]; 100 ppb added): 2.5
- Masking Component Intensity ([5]; 100 ppm added): 3.9
- Off-Flavor Intensity ([5]; 100 ppm added): 1.8
- Masking Component Intensity ([5]; 100 ppt added): 0.1
- Off-Flavor Intensity ([5]; 100 ppt added): 3.5
- Masking Component Intensity ([6]; 1 ppb added): 0.8
- Off-Flavor Intensity ([6]; 1 ppb added): 3.3
- Masking Component Intensity ([6]; 1 ppm added): 2.0
- Off-Flavor Intensity ([6]; 1 ppm added): 2.4
- Masking Component Intensity ([6]; 10 ppb added): 1.1
- Off-Flavor Intensity ([6]; 10 ppb added): 2.9
- Masking Component Intensity ([6]; 10 ppm added): 2.6
- Off-Flavor Intensity ([6]; 10 ppm added): 2.0
- Masking Component Intensity ([6]; 50 ppm added): 3.4
- Off-Flavor Intensity ([6]; 50 ppm added): 1.5
- Masking Component Intensity ([6]; 100 ppb added): 1.6
- Off-Flavor Intensity ([6]; 100 ppb added): 2.5
- Masking Component Intensity ([6]; 100 ppm added): 3.8
- Off-Flavor Intensity ([6]; 100 ppm added): 1.3
- Masking Component Intensity ([6]; 100 ppt added): 0.5
- Off-Flavor Intensity ([6]; 100 ppt added): 3.4
- concentration that masks the off-flavor and does not affect the flavor of the food and/or beverage itself, lower limit [7]: ≥ 10 ppb
- concentration that masks the off-flavor and does not affect the flavor of the food and/or beverage itself, upper limit [7]: ≤ 10 ppm
